From patent US8697709B2, “Fused ring heteroaryl kinase inhibitors” (The Regents of the University of California, priority 2008, dated 2014)
Numbering of substitutions follows the chain as printed. Where two headings read alike, the source gives them in different places.

Legend:
Format in all cases: biochemical
T315A Abl = biological target: T1, T315A Abl (Homo sapiens, UniProt P00519, T315A); assay: In vitro kinase assay, T315A Abl; conditions: Table 1a
T1 sequence (P00519 242-493 T315A limits assumed): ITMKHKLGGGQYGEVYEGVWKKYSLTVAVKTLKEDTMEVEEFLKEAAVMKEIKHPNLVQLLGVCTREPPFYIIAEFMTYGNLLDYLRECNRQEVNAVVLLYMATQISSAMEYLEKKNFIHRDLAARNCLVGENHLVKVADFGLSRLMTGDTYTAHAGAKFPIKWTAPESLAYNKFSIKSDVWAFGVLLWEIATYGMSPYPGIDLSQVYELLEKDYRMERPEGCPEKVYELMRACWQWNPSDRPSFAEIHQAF
Experimental: (§1) Kinase reactions were initiated by the addition of […] cold ATP supplemented with 5 mCi γ^32P ATP and allowed to proceed at room temperature (RT). At 10 minutes […] of the reactions were spotted onto phosphocellulose sheets (P81, Whatman) and subsequently soaked in wash buffer (1.0% (v/v) phosphoric acid). The sheets were washed five times in buffer, dried, and transferred radioactivity was measured by phosphorimaging using a TyphoonTM scanner (Molecular Dynamics). Radioactive counts were quantified using ImageQuantTM software, and titration data were fit to a sigmoidal dose response to derive IC50 values using the Prism® software package. Dose responses were based on a 12 point inhibitor titration, using 1⁄3 dilutions starting from […]. Experiments were completed 2-4 times to derive mean values.

T338G Src = T338G Src (Gallus gallus, UniProt P00523, T338G); assay: In vitro kinase assay, T338G Src
Experimental: as §1

c-Src = c-Src (Gallus gallus, UniProt P00523); assay: In vitro kinase assay (32P peptide phosphorylation), WT Src
Abl = biological target: T2, Abl (Homo sapiens, UniProt P00519); assay: In vitro kinase assay (32P peptide phosphorylation), WT Abl; conditions: read-out: IC50 WT Abl
T2 sequence (P00519 242-493 limits assumed): T1 sequence (P00519 242-493 T315A limits assumed) with A74T

[1] = Table 1a, read-out: IC50 WT Src
[2] = unphosphorylated kinase domain, 100 mM ATP, read-out: IC50 for c-Src
[3] = Table 1b, read-out: IC50 WT Src

Row | Compound | IC50 (T315A Abl) [µM] | IC50 (T338G Src; Table 1a) [µM] | IC50 (c-Src; [1]) [µM] | IC50 (c-Src; [3]) [µM] | also measured
1 | Cn1nc(Cc2ccc(NC(=O)Nc3cccc(C(F)(F)F)c3)cc2)c2c(N)ncnc21 [AD8] | 1 to 5 | 1 to 5 | 1 to 5 | – | –
2 | CC(C)(C)n1nc(Cc2cccc(NC(=O)Nc3cccc(C(F)(F)F)c3)c2)c2c(N)ncnc21 [AD26, 1-(3-((1-tert-butyl-4-amino-1H-pyrazolo[3,4-d]pyrimidin-3-yl)methyl)phenyl)-3-(3-(trifluoromethyl)phenyl)urea] | < 1 | < 1 | < 1 | – | IC50 (c-Src; [2]): 0.48 µM; IC50 (Abl; Table 1a): < 1 µM
3 | CC(C)n1nc(Cc2cccc(NC(=O)c3cccc(C(F)(F)F)c3)c2)c2c(N)ncnc21 [AD35] | < 1 | 1 to 5 | > 5 | – | –
4 | CC(C)n1nc(-c2cccc(NC(=O)c3cccc(C(F)(F)F)c3)c2)c2c(N)ncnc21 [AD52] | – | – | – | 1 to 5 | IC50 (T338G Src; Table 1b): < 1 µM
5 | Nc1ncnc2c1c(-c1ccc(NC(=O)c3cccc(C(F)(F)F)c3)cc1)nn2CCCO [AD65, N-(4-(4-amino-1-(3-hydroxypropyl)-1H-pyrazolo[3,4-d]pyrimidin-3-yl)phenyl)-3-(trifluoromethyl)benzamide] | – | – | – | > 5 | IC50 (Abl; Table 1b): > 5 µM
6 | Nc1ncnc2c1c(-c1ccc(NC(=O)c3cccc(C(F)(F)F)c3)cc1)nn2[C@H]1CCOC1 [AD67, N-(4-(4-amino-1-((S)-tetrahydrofuran-3-yl)-1H-pyrazolo[3,4-d]pyrimidin-3-yl)phenyl)-3-(trifluoromethyl)benzamide] | – | – | – | < 1 | IC50 (Abl; Table 1b): 1 to 5 µM
7 | Nc1ncnc2c1c(-c1ccc(NC(=O)c3cccc(C(F)(F)F)c3)cc1)nn2[C@@H]1CCOC1 [AD68, N-(4-(4-amino-1-((R)-tetrahydrofuran-3-yl)-1H-pyrazolo[3,4-d]pyrimidin-3-yl)phenyl)-3-(trifluoromethyl)benzamide] | – | – | – | > 5 | IC50 (Abl; Table 1b): > 5 µM
8 | Nc1ncnc2c1c(-c1ccc(NC(=O)Nc3cccc(C(F)(F)F)c3)cc1)nn2[C@@H]1CCOC1 [AD69, 1-(4-(4-amino-1-((R)-tetrahydrofuran-3-yl)-1H-pyrazolo[3,4-d]pyrimidin-3-yl)phenyl)-3-(3-(trifluoromethyl)phenyl)urea] | – | – | – | 1 to 5 | IC50 (Abl; Table 1b): > 5 µM
9 | Nc1ncnc2c1c(-c1ccc(NC(=O)c3cccc(C(F)(F)F)c3)cc1)nn2[C@H]1CCNC1 [AD70, N-(4-(4-amino-1-((S)-pyrrolidin-3-yl)-1H-pyrazolo[3,4-d]pyrimidin-3-yl)phenyl)-3-(trifluoromethyl)benzamide] | – | – | – | > 5 | IC50 (Abl; Table 1b): > 5 µM
10 | Nc1ncnc2c1c(-c1ccc(NC(=O)Nc3cccc(C(F)(F)F)c3)cc1)nn2[C@H]1CCN(C(=O)Nc2cccc(C(F)(F)F)c2)C1 [AD71c, (S)-3-(4-amino-3-(4-(3-(3-(trifluoromethyl)phenyl)ureido)phenyl)-1H-pyrazolo[3,4-d]pyrimidin-1-yl)-N-(3-(trifluoromethyl)phenyl)pyrrolidine-1-carboxamide] | – | – | 1 to 5 | – | IC50 (Abl; Table 1a): > 5 µM
11 | CC(C)(C)OC(=O)N1CC[C@H](n2nc(-c3ccc(NC(=O)Nc4cccc(C(F)(F)F)c4)cc3)c3c(N)ncnc32)C1 [AD78, (S)-tert-butyl 3-(4-amino-3-(4-(3-(3-(trifluoromethyl)phenyl)ureido)phenyl)-1H-pyrazolo[3,4-d]pyrimidin-1-yl)pyrrolidine-1-carboxylate] | – | – | < 1 | – | IC50 (Abl; Table 1a): 1 to 5 µM
12 | Nc1ncnc2c1c(Cc1cccc(NC(=O)c3cccc(C(F)(F)F)c3)c1)nn2C1CCCC1 [BB9] | 1 to 5 | < 1 | < 1 | – | –
13 | Nc1ncnc2c1c(Cc1cccc(NC(=O)c3cccc(C(F)(F)F)c3)c1)nn2CC1CC1 [BB13] | < 1 | < 1 | > 5 | – | –
14 | Nc1ncnc2c1c(Cc1cccc(NC(=O)Nc3cccc(C(F)(F)F)c3)c1)nn2CC1CC1 [BB14] | < 1 | < 1 | < 1 | – | –

More lines, main results first:

Row | IC50 (T315A Abl) [µM] | IC50 (T338G Src; Table 1a) [µM] | IC50 (c-Src; [1]) [µM] | IC50 (c-Src; [3]) [µM] | Compound | also measured
15 | 1 to 5 | > 5 | 1 to 5 | – | Cn1nc(Cc2ccc(NC(=O)c3cccc(C(F)(F)F)c3)cc2)c2c(N)ncnc21 [AD7] | –
16 | < 1 | 1 to 5 | > 5 | – | Cn1nc(Cc2cccc(NC(=O)c3cccc(C(F)(F)F)c3)c2)c2c(N)ncnc21 [AD15] | –
17 | 1 to 5 | < 1 | 1 to 5 | – | Cn1nc(Cc2cccc(NC(=O)Nc3cccc(C(F)(F)F)c3)c2)c2c(N)ncnc21 [AD16, 1-(3-((4-amino-1-methyl-1H-pyrazolo[3,4-d]pyrimidin-3-yl)methyl)phenyl)-3-(3-(trifluoromethyl)phenyl)urea] | IC50 (c-Src; [2]): ~6.2 µM; IC50 (Abl; Table 1a): 1 to 5 µM
18 | < 1 | < 1 | 1 to 5 | – | CC(C)(C)n1nc(Cc2cccc(NC(=O)c3cccc(C(F)(F)F)c3)c2)c2c(N)ncnc21 [AD25] | –
19 | – | – | – | 1 to 5 | CC(C)n1nc(-c2cccc(NC(=O)Nc3cccc(C(F)(F)F)c3)c2)c2c(N)ncnc21 [AD53] | IC50 (T338G Src; Table 1b): < 1 µM
20 | – | – | – | 1 to 5 | CC(C)n1nc(-c2ccc(NC(=O)c3cccc(C(F)(F)F)c3)cc2)c2c(N)ncnc21 [AD56] | IC50 (T338G Src; Table 1b): < 1 µM
21 | – | – | – | < 1 | Nc1ncnc2c1c(-c1ccc(NC(=O)Nc3cccc(C(F)(F)F)c3)cc1)nn2CCCO [AD64, 1-(4-(4-amino-1-(3-hydroxypropyl)-1H-pyrazolo[3,4-d]pyrimidin-3-yl)phenyl)-3-(3-(trifluoromethyl)phenyl)urea] | IC50 (Abl; Table 1b): > 5 µM
22 | – | – | – | < 1 | Nc1ncnc2c1c(-c1ccc(NC(=O)Nc3cccc(C(F)(F)F)c3)cc1)nn2[C@H]1CCOC1 [AD66, 1-(4-(4-amino-1-((S)-tetrahydrofuran-3-yl)-1H-pyrazolo[3,4-d]pyrimidin-3-yl)phenyl)-3-(3-(trifluoromethyl)phenyl)urea] | IC50 (Abl; Table 1b): < 1 µM
23 | – | – | – | > 5 | Nc1ncnc2c1c(-c1ccc(NC(=O)c3cccc(C(F)(F)F)c3)cc1)nn2[C@@H]1CCNC1 [AD72, N-(4-(4-amino-1-((R)-pyrrolidin-3-yl)-1H-pyrazolo[3,4-d]pyrimidin-3-yl)phenyl)-3-(trifluoromethyl)benzamide] | IC50 (Abl; Table 1b): > 5 µM
24 | – | – | 1 to 5 | – | Nc1ncnc2c1c(-c1ccc(NC(=O)Nc3cccc(C(F)(F)F)c3)cc1)nn2[C@@H]1CCN(C(=O)Nc2cccc(C(F)(F)F)c2)C1 [AD73c, (R)-3-(4-amino-3-(4-(3-(3-(trifluoromethyl)phenyl)ureido)phenyl)-1H-pyrazolo[3,4-d]pyrimidin-1-yl)-N-(3-(trifluoromethyl)phenyl)pyrrolidine-1-carboxamide] | IC50 (Abl; Table 1a): > 5 µM
25 | – | – | < 1 | – | CC(C)(C)OC(=O)N1CC[C@@H](n2nc(-c3ccc(NC(=O)Nc4cccc(C(F)(F)F)c4)cc3)c3c(N)ncnc32)C1 [AD79, (R)-tert-butyl 3-(4-amino-3-(4-(3-(3-(trifluoromethyl)phenyl)ureido)phenyl)-1H-pyrazolo[3,4-d]pyrimidin-1-yl)pyrrolidine-1-carboxylate] | IC50 (Abl; Table 1a): 1 to 5 µM
26 | 1 to 5 | 1 to 5 | 1 to 5 | – | Nc1ncnc2c1c(Cc1cccc(NC(=O)c3cccc(C(F)(F)F)c3)c1)nn2Cc1ccccc1 [BB5, N-(3-((4-amino-1-benzyl-1H-pyrazolo[3,4-d]pyrimidin-3-yl)methyl)phenyl)-3-(trifluoromethyl)benzamide] | –
27 | < 1 | 1 to 5 | 1 to 5 | – | Nc1ncnc2c1c(Cc1cccc(NC(=O)Nc3cccc(C(F)(F)F)c3)c1)nn2Cc1ccccc1 [BB6, 1-(3-((4-amino-1-benzyl-1H-pyrazolo[3,4-d]pyrimidin-3-yl)methyl)phenyl)-3-(3-(trifluoromethyl)phenyl)urea] | –
